Three compounds from ChEMBL document CHEMBL5506058, “Discovery of Quinazoline and Quinoline-Based Small Molecules as Utrophin Upregulators via AhR Antagonism for the Treatment of Duchenne Muscular Dystrophy” (J Med Chem, 2024) can be followed below.

The test system of data set [1] is C2C12. Description: Cytotoxicity against mouse C2C12 cells assessed as reduction in cell viability at 0.78 to 100 uM measured after 24 hrs by MTT assay. In kind it is toxicity, cell-based. Particulars: c2c12, 24 h, dose 0.78-100 µM. In general terms: Formazan colour is commonly taken as a measure of viable cells.
The nature of data set [2]: Upregulation of utrophin expression in mouse C2C12 cells assessed as fold increase at 800 nM measured after 72 hrs by In-cell ELISA method. In kind it is functional. (An ELISA detects its analyte on a solid surface through an enzyme-linked reagent.)
Data set [3] has as its system C2C12. The data set can be described thus: Upregulation of utrophin mRNA expression in mouse C2C12 cells at 800 nM measured after 72 hrs by qRT-PCR analysis. The format is functional, cell-based. A general note: In qPCR the cycle at which signal appears reflects the starting amount.
Data set [4] is described as follows: Upregulation of utrophin mRNA expression in mouse C2C12 cells assessed as fold increase at 800 nM measured after 72 hrs by qRT-PCR analysis. The format is functional.
Data set [5] is described as follows: Upregulation of utrophin protein expression in mouse C2C12 cells assessed as fold increase at 800 nM measured after 72 hrs by Western blot analysis. The format is functional.
Data set [6] concerns C2C12. Description: Upregulation of utrophin protein expression in mouse C2C12 level measured after 72 hrs by Westernblot analysis. In kind it is functional, cell-based. To be noted: dose 200-800 nM.
Data set [7] concerns C2C12. The data set can be described thus: Upregulation of utrophin mRNA expression in mouse C2C12 level measured after 72 hrs by qRT-PCR analysis. The format is functional, cell-based. Particulars: dose 200-800 nM.

Molecules are shown by their SMILES. Calls of active or inactive are those of the source. No cut-off for these calls is given here.

On to `CS(=O)(=O)c1ccc2nc(NCc3ccncc3)ncc2c1`, for which, in data set [1], the Activity result is given as “Toxic”. In data set [2], the “fold change (FC)” value was found to be 1.88. Besides, the result in data set [3] was Active.

Regarding `CCS(=O)(=O)c1ccc2nc(NCc3ccc(C(F)(F)F)cc3)ncc2c1`, the results for the “fold change (FC)” value in data set [4], in data set [5] and in data set [2] were 1.95, 2.51 and 1.93, respectively. The values for the Activity entry in data set [1], in data set [6] and in data set [7] were “Toxic”, “Dose-Dependent Effect” and “Dose-Dependent Effect”, respectively. In addition, in data set [3], the outcome was Active.

For `CS(=O)(=O)c1ccc2nc(Nc3ccc(F)cc3)ncc2c1`, the Activity entry in data set [1] is on record as “Toxic”. The “fold change (FC)” value in data set [2] is listed as 1.06.
